In patent US12258360B2, “Compositions and methods for treatment of anticancer-drug resistant cancers” (THE GEORGE WASHINGTON UNIVERSITY, priority 2020, dated 2025):
Counter-ions that a name gives are not always drawn. Like-named read-outs stand apart in the source and are kept apart here.

How the values were obtained:
[1] = target: T1, And-1 protein fused to a luciferase reporter gene (Homo sapiens, UniProt O75717); assay: quantitative HTS (qHTS) of LOPAC library in HEK293T-And-1-Luc cells (luciferase read-out of And-1 level); type: cell-based; conditions: HTS assay
T1 sequence (O75717 1-1129): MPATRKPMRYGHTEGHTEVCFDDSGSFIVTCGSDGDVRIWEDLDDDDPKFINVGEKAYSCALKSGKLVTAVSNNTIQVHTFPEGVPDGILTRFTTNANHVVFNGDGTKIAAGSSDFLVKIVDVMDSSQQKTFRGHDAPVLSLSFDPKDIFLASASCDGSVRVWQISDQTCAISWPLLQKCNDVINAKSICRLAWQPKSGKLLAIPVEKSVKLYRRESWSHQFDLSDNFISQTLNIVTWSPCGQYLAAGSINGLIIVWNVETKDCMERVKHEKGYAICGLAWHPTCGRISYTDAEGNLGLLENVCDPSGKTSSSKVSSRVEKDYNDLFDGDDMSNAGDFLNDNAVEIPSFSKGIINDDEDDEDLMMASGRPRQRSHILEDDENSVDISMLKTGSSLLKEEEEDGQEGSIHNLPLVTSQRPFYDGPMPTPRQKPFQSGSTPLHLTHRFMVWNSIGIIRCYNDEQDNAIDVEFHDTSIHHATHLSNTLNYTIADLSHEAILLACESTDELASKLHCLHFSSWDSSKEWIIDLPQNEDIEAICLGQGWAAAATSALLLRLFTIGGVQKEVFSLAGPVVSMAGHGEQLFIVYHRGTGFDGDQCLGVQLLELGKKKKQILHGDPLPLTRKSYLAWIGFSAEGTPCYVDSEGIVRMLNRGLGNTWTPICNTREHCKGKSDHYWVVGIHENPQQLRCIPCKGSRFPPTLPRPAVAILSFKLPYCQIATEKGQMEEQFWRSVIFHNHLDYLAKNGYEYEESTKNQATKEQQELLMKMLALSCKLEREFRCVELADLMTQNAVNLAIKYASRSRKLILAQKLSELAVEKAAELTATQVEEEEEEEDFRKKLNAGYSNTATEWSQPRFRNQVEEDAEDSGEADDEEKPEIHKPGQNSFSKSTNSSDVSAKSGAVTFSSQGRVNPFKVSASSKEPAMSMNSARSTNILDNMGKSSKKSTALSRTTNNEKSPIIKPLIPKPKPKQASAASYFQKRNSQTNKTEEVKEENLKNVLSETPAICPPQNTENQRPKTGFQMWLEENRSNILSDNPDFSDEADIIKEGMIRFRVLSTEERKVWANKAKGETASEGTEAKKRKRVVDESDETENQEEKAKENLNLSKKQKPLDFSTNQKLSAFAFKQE
Text: To identify And-1 specific pharmacologic inhibitors, a high-throughput screening (HTS) assay was established to identify small molecules that can inhibit And-1 by inducing its degradation. For this assay, two stable cell lines, a HEK293T-And-1-Luc cell expressing And-1 protein fused to a luciferase reporter gene, and a HEK293T-Luc cell expressing luciferase only were generated (FIG. 13A). HEK293T-And-1-Luc cells allowed for assessment of And-1 protein levels by measuring luciferase activity in a high throughput manner.

AN3CA cells = assay: cell proliferation assay (MTS) in AN3CA cells; type: cell-based, human; conditions: 10 μM, 48 h
Experimental: • 1. The experimental steps are as follows: • 1.1 AN3CA cell recovery and culture (MEM medium, 10% serum, 1% double antibody); • 1.2 Passages (passage at a ratio of 1:2); • 1.3 Place 96-well plate when the cell status is good, 1×10^4 Well, culture overnight; • culture medium with 10% defatted serum • 1.4 Adding medicine: diluting the final concentration of the drug with a culture medium to 10 μM, and treating for 48 h at 100 μL/well; • culture medium with 10% defatted serum • 1.5 Addition of 2 μL MTS/well, care taken to prevent bubble formation, 490 nm data after 1-4 h

And-1 [2] = target: T2, And-1 (Homo sapiens, UniProt O75717); assay: inhibition of And-1 in OV90 CR cells; type: cell-based; set-up: endogenous in cells; conditions: inhibition of And-1, OV90 CR cells
T2 sequence (O75717 1-1129): T1 sequence (O75717 1-1129)

And-1 [3] = target: T2, And-1; assay: inhibition of And-1 in IGROV1 CR cells; type: cell-based; set-up: endogenous in cells; host or cells: IGROV1 CR; conditions: inhibition of And-1, IGROV1 CR cells
SREBP target gene SCD-1 = assay: RT-PCR detection of SCD-1 gene expression in AN3CA cells; type: cell-based, human; conditions: 10 μM; for activity of reducing SCD-1 gene expression (in words) / Relative mRNA expression of SCD-1: AN3CA cells; for Relative mRNA expression of SCD-1: 48 h, DMSO = 1
Experimental: • 1. Experimental reagent • 2. The experimental steps are as follows: • 2.1 AN3CA cell recovery and culture (10% serum 1% double antibody in MEM medium); • 2.2 passages (passage at a ratio of 1:2); • 2.3 Place 6 well plates when the cell status is good, 5×10^5Well, culture overnight; • 2.4 adding medicine: diluting the final concentration of the drug with a culture medium to 10 μM, 2 mL/well; • 2.5 adding medicine for 48 h, and then extracting RNA; • 2.5.1 removing the culture medium, adding 0.5 mL/hole Trizol to lyse the cells, repeatedly blowing and beating the cells by a pipette after 5 min, completely lysing the cells, transferring the cells into a 1.5 mL EP tube without RNase, and standing the tube for 5 min; • 2.5.2 adding 200 µl chloroform, shaking rapidly, mixing, standing for 10 min 12000 rpm/15 min; • 2.5.3 carefully taking out the supernatant, transferring the supernatant into an EP tube, adding isopropanol with the same volume, reversing, uniformly mixing, standing for 10 min, and centrifuging at 12000 rpm/10 min; • 2.5.4 removing the supernatant, adding 1 mL of 75% ethanol for washing, centrifuging at 8000 rpm/5 min once, carefully removing the supernatant, standing at room temperature for 10 min to volatilize the ethanol, and dissolving the precipitate with 40 μL of DEPC treated water when the precipitate becomes transparent; • 2.5.5 RNA concentration was measured and DEPC-treated water was diluted to 100 ng/μL • 2.6 reverse transcription: Kit Takara (PrimeScript RT reagent Kit (Perfect Real Time)

And-1 [4] = target: T2, And-1; assay: immunoblot analysis of And-1 expression in IGROV1 cells; type: cell-based; set-up: endogenous in cells; host or cells: IGROV1 CR; conditions: immunoblot, read-out: IC50 for inhibition of And-1 expression
Experimental: The high IC50 of resveratrol compromises its potential clinical application; therefore, resveratrol was used as a lead compound to screen 12 analogs of resveratrol for potent compounds that can inhibit And-1 (FIG. 14). […] To perform immunoblot analyses, cells were first treated with increasing concentrations of the 12 analogs. After treatment, the cells were harvested and then lysed with RIPA buffer protease inhibitor and phosphatase inhibitor cocktail. Protein concentration was determined by the BCA protein assay. Equal amounts of whole cell lysates were separated on sodium dodecyl sulfate polyacrylamide gel electrophoresis (SDS-PAGE) and transferred onto nitrocellulose membranes. Membranes were then incubated in blocking solution (5% non-fat milk in 20 mM TRIS-HCl, 150 mM NaCl, 0.1% Tween-20) (TBST), followed by incubation with the indicated antibodies at 4° C. overnight. The membranes were then washed in TBST and incubated with HRP-conjugated secondary antibodies for 1 hour at room temperature (21° C.±2° C.). Antibody detection was performed with an enhanced chemiluminescence reaction.

[5] = determination 1, read-out: IC50 (μM) 1
[6] = average of 1 and 2, read-out: IC50 (μM) average
[7] = determination 2, read-out: IC50 (μM) 2

Row | Structure (SMILES) | IC50 [1, 5] | IC50 [1, 6] | IC50 [1, 7] | Relative mRNA expression of SCD-1 (SREBP target gene SCD-1) | other results
1 | COc1cc2c(cc1O)CC[C@@H]1[C@@H]2CC[C@]2(C)[C@@H](O)CC[C@@H]12 [2-methoxyestradiol] | 1.67 µM | – | – | – | IC50 (μM) 2 ([1]; determination 2): inactive
2 | CC[C@@]1(O)C(=O)OCc2c1cc1n(c2=O)Cc2cc3ccccc3nc2-1 [(S)-(+)-Camptothecin] | 0.73 µM | – | – | – | IC50 (μM) 2 ([1]; determination 2): inactive
3 | CC[n+]1c(/C=C/C=C2/N(C)c3ccccc3C2(C)C)sc2ccccc21 [AC-93253 iodide] | 1.09 µM | 0.76 µM | 0.44 µM | – | –
4 | CNc1ccc2oc(C[C@H]3O[C@@]4(CC[C@H]3C)O[C@H]([C@H](C)C(=O)c3ccc[nH]3)[C@H](C)C[C@H]4C)nc2c1C(=O)O [Calcimycin] | 6.1 µM | 8.32 µM | 10.5 µM | – | –
5 | COCCOC(=O)C1=C(C)NC(C)=C(C(=O)OC/C=C/c2ccccc2)C1c1cccc([N+](=O)[O-])c1 (centres unmarked) [Cilnidipine] | 22.9 µM | 21.1 µM | 19.3 µM | – | –
6 | c1ccc2c(c1)[I+]c1ccccc1-2 [Diphenyleneiodonium chloride] | 0.84 µM | 0.43 µM | 0.03 µM | – | –
7 | Nc1ccn([C@@H]2O[C@H](CO)[C@@H](O)C2(F)F)c(=O)n1 [Gemcitabine hydrochloride] | 0.02 µM | – | – | – | IC50 (μM) 2 ([1]; determination 2): inactive
8 | OB1OCc2cc(/C=C/c3cc(C(F)(F)F)cc(C(F)(F)F)c3)ccc21 [IV, (E)-5-(3,5-bis(trifluoromethyl)styryl)benzo[c][1,2]oxaborol-1(3H)-ol] | – | – | – | 0.42 | inhibition of AN3CA cell proliferation (in words) (AN3CA cells): different degrees of inhibition; IC50 (And-1 [2]): 57.9 µM; IC50 (And-1 [3]): 37.6 µM; activity of reducing SCD-1 gene expression (in words) (SREBP target gene SCD-1): better than those of BF-175
9 | OB1OCc2cc(/C=C/c3cccc(F)c3)ccc21 [IX, (E)-5-(3-fluorostyryl)benzo[c][1,2]oxaborol-1(3H)-ol] | – | – | – | 0.72 | –
10 | O=C1C(SCCO)=C(SCCO)C(=O)c2ccccc21 [NSC 95397] | 11.2 µM | 9.42 µM | 7.68 µM | – | –
11 | C=CCc1cccc(/C=N/NC(=O)CN2CCN(Cc3ccccc3)CC2)c1O [PAC-1] | 18.8 µM | 21.3 µM | 23.8 µM | – | –
12 | CCN(CC)CCOc1ccc(Nc2ncc3cc(-c4c(Cl)cccc4Cl)c(=O)n(C)c3n2)cc1 [PD-166285 hydrate] | – | – | – | – | DC50 [1, 6]: 3.03 µM; DC50 [1, 5]: 3.33 µM; DC50 [1, 7]: 2.73 µM
13 | Oc1ccc(C=Cc2cc(O)cc(O)c2)cc1 [Resveratrol] | – | – | – | – | DC50 (And-1 [4]): 16.7 µM; DC50 [1, 6]: 18.9 µM; DC50 [1, 5]: 14.9 µM; DC50 [1, 7]: 22.9 µM
14 | C/C=C(/C)C(=O)O[C@H]1C(C)=C2[C@H]([C@@H]1OC(=O)CCCCCCC)[C@@](C)(OC(C)=O)C[C@H](OC(=O)CCC)[C@@]1(O)[C@H]2OC(=O)[C@@]1(C)O [Thapsigargin] | 13.3 µM | 6.95 µM | 0.63 µM | – | –
15 | CC[C@@]1(O)C(=O)OCc2c1cc1n(c2=O)Cc2cc3c(CN(C)C)c(O)ccc3nc2-1 [Topotecan hydrochloride hydrate] | – | – | – | – | DC50 [1, 5]: 0.61 µM; IC50 (μM) 2 ([1]; determination 2): inactive
16 | OB1OCc2cc(/C=C/c3ccccc3C(F)(F)F)ccc21 [VI, (E)-5-(2-(trifluoromethyl)styryl)benzo[c][1,2]oxaborol-1(3H)-ol] | – | – | – | 1.03 | –
17 | OB1OCc2cc(/C=C/c3ccc(C(F)(F)F)cc3)ccc21 [VII, (E)-5-(4-(trifluoromethyl)styryl)benzo[c][1,2]oxaborol-1(3H)-ol] | – | – | – | 1.07 | –
18 | OB1OCc2cc(/C=C/c3cc(F)cc(C(F)(F)F)c3)ccc21 [V] | – | – | – | 0.72 | –
19 | OB1OCc2cc(/C=C/c3cccc(Cl)c3)ccc21 [X, (E)-5-(3-chlorostyryl)benzo[c][1,2]oxaborol-1(3H)-ol] | – | – | – | 0.56 | IC50 (And-1 [2]): 20.6 µM; IC50 (And-1 [3]): 19.2 µM; inhibitory effect on Srebp (SREBP target gene SCD-1; human endometrial cancer AN3CA cells): high inhibitory effect
20 | Cc1cccc(/C=C/c2ccc3c(c2)COB3O)c1 [XI, (E)-5-(3-methylstyryl)benzo[c][1,2]oxaborol-1(3H)-ol] | – | – | – | – | IC50 (And-1 [2]): 34.3 µM; IC50 (And-1 [3]): 32.9 µM
21 | COc1cccc(/C=C/c2ccc3c(c2)COB3O)c1 [XII, (E)-5-(3-methoxystyryl)benzo[c][1,2]oxaborol-1(3H)-ol] | – | – | – | 0.62 | IC50 (And-1 [2]): 37.4 µM; IC50 (And-1 [3]): 34.1 µM
22 | OB1OCc2cc(/C=C/c3ccccc3)ccc21 [XIII, (E)-5-styrylbenzo[c][1,2]oxaborol-1(3H)-ol] | – | – | – | 0.71 | IC50 (And-1 [2]): 45.6 µM; IC50 (And-1 [3]): 41 µM
23 | OB1OCc2cc(Cl)ccc21 [travaborole, reference compound] | – | – | – | 1.08 | activity of reducing SCD-1 gene expression (in words) (SREBP target gene SCD-1): do not have the activity of reducing the expression of SCD-1 gene
